27 compounds from patent publication US10221139B2, “Inhibitors of histone demethylases” (Gilead Sciences, Inc., priority 2012, dated 2019) can be followed below.

One test has as its system MCF7 cells. The experiment in a line: MCF7 cell proliferation assay (ATPlite). Format: cell-based. The note with it: Homo sapiens, 120 hours. As for the experimental part: MCF7 cells were seeded at 1250 cells/well in 50 μl medium/well in black 96 well plates. Cells were incubated for 24 hours before addition of compound. Compounds were diluted in complete medium (50 μl/well) and added to the plates in duplicates. The total volume of medium in the wells was 100 μl, and the final concentration of DMSO 0.5%. Complete medium used was DMEM with GlutaMAX containing 10% FBS and pen/strep.
120 hours after addition of compounds, the plates were harvested and analyzed by ATPlite 1 Step (Perkin Elmer, cat no 6016739) according to the manufactures recommendation. Briefly, 100 μl ATP lite solution was added to each well, plates were vortexed at 700 rpm 2 minutes, followed by 20 minutes incubation in the dark, and then analyzed for luminescence on EnSpire 2300 Mulitilabel reader (Perkin Elmer). EC50 values were calculated using GraphPad Prism 6.
(In general: ATP-based viability assays read luminescence as a measure of living cells.)

In the next test the target is T1, UTX (KDM6A) (Homo sapiens, UniProt O15550).
T1 construct: 919-1401; host or cells: E. coli
T1 sequence (O15550 919-1401): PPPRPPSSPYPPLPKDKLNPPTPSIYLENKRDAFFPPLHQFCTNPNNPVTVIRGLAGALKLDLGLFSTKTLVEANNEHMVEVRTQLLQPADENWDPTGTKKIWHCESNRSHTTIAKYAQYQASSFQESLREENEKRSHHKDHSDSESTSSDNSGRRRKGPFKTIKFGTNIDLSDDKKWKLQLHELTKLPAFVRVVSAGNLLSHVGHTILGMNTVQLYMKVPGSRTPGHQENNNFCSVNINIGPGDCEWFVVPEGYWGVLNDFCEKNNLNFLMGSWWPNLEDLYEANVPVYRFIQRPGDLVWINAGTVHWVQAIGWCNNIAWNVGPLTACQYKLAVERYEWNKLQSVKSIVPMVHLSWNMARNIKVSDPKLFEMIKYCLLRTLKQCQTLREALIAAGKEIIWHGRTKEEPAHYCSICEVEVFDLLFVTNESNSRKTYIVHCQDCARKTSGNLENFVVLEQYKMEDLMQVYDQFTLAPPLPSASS
The experiment in a line: Histone lysine demethylase AlphaLISA assay, UTX. Format: biochemical. The note with it: substrate BK27M3. Put shortly: (§1)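 AlphaLISA read-out, IC50. Enzyme 10 min preinc → + cpd (3% DMSO soln) 10 min → + substrate, RT → acceptor beads 60 min dark RT → streptavidin donor beads, dark RT → read.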
(In Alpha technology, singlet oxygen from a donor bead excites a nearby acceptor bead.)

A further test deals with T2, GASC1 (KDM4C, JMJD2C) (Homo sapiens, UniProt Q9H3R0).
T2 construct: 1-349; host or cells: E. coli
T2 sequence (Q9H3R0 1-349): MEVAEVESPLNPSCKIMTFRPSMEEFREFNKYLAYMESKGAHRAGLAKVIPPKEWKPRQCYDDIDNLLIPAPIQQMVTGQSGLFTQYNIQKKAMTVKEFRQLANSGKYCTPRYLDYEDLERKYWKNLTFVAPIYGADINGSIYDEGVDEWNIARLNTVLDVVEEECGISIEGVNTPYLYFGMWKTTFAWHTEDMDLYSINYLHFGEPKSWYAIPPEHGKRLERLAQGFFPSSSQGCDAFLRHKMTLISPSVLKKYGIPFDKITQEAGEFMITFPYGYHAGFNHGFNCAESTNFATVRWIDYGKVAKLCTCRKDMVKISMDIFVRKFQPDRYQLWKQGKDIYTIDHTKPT
The test can be described thus: Histone lysine demethylase AlphaLISA assay, GASC1. Format: biochemical. The note with it: substrate BK9M3. Put shortly: as §1

Another test concerns the target T3, PLU1 (KDM5B) (Homo sapiens, UniProt Q9UGL1).
T3 construct: 1-809; host or cells: E. coli
T3 sequence (Q9UGL1 1-809): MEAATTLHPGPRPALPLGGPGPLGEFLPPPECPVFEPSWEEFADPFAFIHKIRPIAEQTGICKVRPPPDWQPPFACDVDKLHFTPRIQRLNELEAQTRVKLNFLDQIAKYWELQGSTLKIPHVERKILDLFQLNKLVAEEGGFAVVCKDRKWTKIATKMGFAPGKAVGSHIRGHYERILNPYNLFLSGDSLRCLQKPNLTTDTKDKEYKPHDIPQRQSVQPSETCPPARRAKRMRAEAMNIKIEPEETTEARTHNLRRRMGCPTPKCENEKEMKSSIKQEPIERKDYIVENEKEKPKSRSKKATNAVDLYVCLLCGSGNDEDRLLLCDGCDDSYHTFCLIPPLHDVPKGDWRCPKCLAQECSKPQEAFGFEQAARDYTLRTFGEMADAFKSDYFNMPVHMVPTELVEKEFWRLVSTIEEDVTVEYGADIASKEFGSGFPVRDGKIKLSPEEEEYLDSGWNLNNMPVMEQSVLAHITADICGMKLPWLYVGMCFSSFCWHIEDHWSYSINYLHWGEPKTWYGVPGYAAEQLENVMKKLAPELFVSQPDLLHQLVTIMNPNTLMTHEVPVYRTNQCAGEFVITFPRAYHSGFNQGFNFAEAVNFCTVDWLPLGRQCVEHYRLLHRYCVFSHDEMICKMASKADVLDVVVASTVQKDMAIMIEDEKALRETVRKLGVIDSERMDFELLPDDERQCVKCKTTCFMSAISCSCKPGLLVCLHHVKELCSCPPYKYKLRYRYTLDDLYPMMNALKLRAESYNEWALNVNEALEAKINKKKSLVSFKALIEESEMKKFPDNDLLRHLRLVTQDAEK
The experiment in a line: Histone lysine demethylase AlphaLISA assay, PLU1. Conditions: substrate H3K4M3B. In kind it is biochemical. Put shortly: as §1

The structures appear in SMILES notation.

`CCN(CC)CCCCNCc1cc(C(=O)Oc2c(OC)cccc2OC)ccn1` [drawing 273, 2,6-dimethoxyphenyl 2-({[4-(diethylamino)butyl]amino}methyl)pyridine-4-carboxylate] showed a half-maximal effective concentration (EC50) with MCF7 cells of less than 1 µM.

Turning to `CCN(CC)CCCCNCc1cc(C(=O)Oc2ccc(OC)cc2)ccn1` [drawing 269, 4-methoxyphenyl 2-({[4-(diethylamino)butyl]amino}methyl)pyridine-4-carboxylate], the EC50 in the test with MCF7 cells was less than 1 µM.

Compound `CCN(CCN(C)C)C(=O)CNCc1cc(C(=O)Oc2ccc(C(C)(C)C)cc2)ccn1` [drawing 278, 4-tert-butylphenyl 2-{[({[2-(dimethylamino)ethyl](ethyl)carbamoyl}methyl)amino]methyl}pyridine-4-carboxylate] came in with an EC50 in the test on MCF7 cells of less than 1 µM.

On to `O=C(O)c1ccnc(CNCCCN2CCC(Cc3ccccc3)CC2)c1` [drawing 265, 2-({[3-(4-benzylpiperidin-1-yl)propyl]amino}methyl)pyridine-4-carboxylic acid], for which the half-maximal effective concentration (EC50) with MCF7 cells was in the range of 1 to 50 µM.

In the case of `CN(CCCNCc1cc(C(=O)O)ccn1)Cc1ccccc1F` [drawing 264, 2-{[(3-{[(2-fluorophenyl)methyl](methyl)amino}propyl)amino]methyl}pyridine-4-carboxylic acid], the concentration for a half-maximal effect (EC50) in the test with MCF7 cells is 1 to 50 µM.

In the test on MCF7 cells, `CCN(CC)CCCCNCc1cc(C(=O)OCCCN(C)C)ccn1` [drawing 271, 3-(dimethylamino)propyl 2-({[4-(diethylamino)butyl]amino}methyl)pyridine-4-carboxylate] registered an EC50 of 1 to 50 µM.

`CCN(CCC#N)C(=O)CNCc1cc(C(=O)O)ccn1` [drawing 263, 2-[({[(2-cyanoethyl)(ethyl)carbamoyl]methyl}amino)methyl]pyridine-4-carboxylic acid] had an EC50 in the test with MCF7 cells of 1 to 50 µM.

Consider `CCOC(=O)c1ccccc1OC(=O)c1ccnc(CNCC(=O)N(CC)CCN(C)C)c1` [drawing 276, 2-(ethoxycarbonyl)phenyl 2-{[({[2-(dimethylamino)ethyl](ethyl)carbamoyl}methyl)amino]methyl}pyridine-4-carboxylate], for which the EC50 with MCF7 cells lay within 1 to 50 µM.

Compound `CCN(CCN(C)C)C(=O)CNCc1cc(C(=O)N2CCOC2=O)ccn1` [drawing 289, N-[2-(dimethylamino)ethyl]-N-ethyl-2-({[4-(2-oxo-1,3-oxazolidine-3-carbonyl)pyridin-2-yl]methyl}amino)acetamide] returned an EC50 in the test with MCF7 cells of 1 to 50 µM.

For `CN(CCCc1nccn1C)C(=O)CNCc1cc(C(=O)O)ccn1` [drawing 261, 2-{[({methyl[3-(1-methyl-1H-imidazol-2-yl)propyl]carbamoyl}methyl)amino]methyl} pyridine-4-carboxylic acid], the concentration for a half-maximal effect (EC50) in the test on MCF7 cells is 1 to 50 µM.

Take `O=C(O)c1ccnc(CNCC2CC2)c1` [drawing 257, 2-{[(cyclopropylmethyl)amino]methyl}pyridine-4-carboxylic acid]: in the test on MCF7 cells, the concentration for a half-maximal effect (EC50) was in the range of 1 to 50 µM.

Take `CCN(CCN(C)C)C(=O)CNCc1cc(C(=O)OCC(F)(F)F)ccn1` [drawing 292, 2,2,2-trifluoroethyl 2-{[({[2-(dimethylamino)ethyl](ethyl)carbamoyl}methyl)amino]methyl}pyridine-4-carboxylate]: the half-maximal effective concentration (EC50) in the test on MCF7 cells lay in the range of 1 to 50 µM.

In the test with MCF7 cells, `CCOC(=O)Nc1ccc(COC(=O)c2ccnc(CNCCCCN(CC)CC)c2)cc1` [drawing 272, {4-[(ethoxycarbonyl)amino]phenyl}methyl 2-({[4-(diethylamino)butyl]amino}methyl)pyridine-4-carboxylate] yielded a half-maximal effective concentration (EC50) of 1 to 50 µM.

With `CCN(CCN(C)C)C(=O)CNCc1cc(C(=O)O)ccn1` [drawing 268, 2-{[({[2-(dimethylamino)ethyl](ethyl)carbamoyl}methyl)amino]methyl}pyridine-4-carboxylic acid], in the test on MCF7 cells, the concentration giving a half-maximal response (EC50) lay in the range of 1 to 50 µM.

With `CN(CCCCN(Cc1ccccc1)C1CC1)C(=O)CNCc1cc(C(=O)O)ccn1` [drawing 267, 2-({[({4-[benzyl(cyclopropyl)amino]butyl)(methyl)carbamoyl)methyl]amino}methyl)pyridine-4-carboxylic acid], the EC50 with MCF7 cells was more than 50 µM.

For the compound `CCN(CCN(C)C)C(=O)CNCc1cc(C(=O)OCCF)ccn1` [drawing 294, 2-fluoroethyl 2-{[({[2-(dimethylamino)ethyl](ethyl)carbamoyl}methyl)amino]methyl}pyridine-4-carboxylate], the EC50 in the test on MCF7 cells was less than 1 µM.

`CCN(CCN(C)C)C(=O)CNCc1cc(C(=O)OC(C)CC(C)=O)ccn1` (stereo not shown) [drawing 279, 4-oxopentan-2-yl 2-{[({[2-(dimethylamino)ethyl](ethyl)carbamoyl}methyl)amino]methyl}pyridine-4-carboxylate] gave a concentration for a half-maximal effect (EC50) in the test with MCF7 cells of less than 1 µM.

On to `CCN(CCN(C)C)C(=O)CNCc1cc(C(=O)OC(C)CCNC(=O)C(F)(F)F)ccn1` (stereo not shown) [drawing 280, 4-(trifluoroacetamido)butan-2-yl 2-{[({[2-(dimethylamino)ethyl](ethyl)carbamoyl}methyl)amino]methyl}pyridine-4-carboxylate], for which, in the test on MCF7 cells, the EC50 is less than 1 µM.

With `Cn1c(CNCc2cc(C(=O)O)ccn2)nc2ccccc21` [drawing 259], the EC50 in the test with MCF7 cells lay within 1 to 50 µM.

Turning to `CCOC(=O)c1ccnc(CNCC(=O)N(CC)CCN(C)C)c1` [drawing 282, ethyl 2-{[({[2-(dimethylamino)ethyl](ethyl)carbamoyl}methyl)amino]methyl}pyridine-4-carboxylate], the EC50 in the test on MCF7 cells is less than 1 µM.

`C=CCN(CC=C)C(=O)CNCc1cc(C(=O)O)ccn1` [drawing 260, 2-[({[bis(prop-2-en-1-yl)carbamoyl]methyl}amino)methyl]pyridine-4-carboxylic acid] came in with an EC50 in the test on MCF7 cells of 1 to 50 µM.

As for `C=CC(CCNC(=O)C(F)(F)F)OC(=O)c1ccnc(CNCC(=O)N(CC)CCN(C)C)c1` (stereo not shown) [drawing 283, 5-(trifluoroacetamido)pent-1-en-3-yl 2-{[({[2-(dimethylamino)ethyl](ethyl)carbamoyl}methyl)amino]methyl}pyridine-4-carboxylate], the EC50 with MCF7 cells was less than 1 µM.

Consider `COc1ccccc1CN1CCC(NC(=O)CNCc2cc(C(=O)O)ccn2)CC1` [drawing 262], for which the EC50 in the test with MCF7 cells fell in the range of 1 to 50 µM.

Turning to `CCCCCCCCCCCCCCCC(=O)OCC(COC(=O)c1ccnc(CNCC(=O)N(CC)CCN(C)C)c1)OC(=O)CCCCCCCCCCCCCCC` (stereo not shown) [drawing 286, 1-(2-{[({[2-(dimethylamino)ethyl](ethyl)carbamoyl}methyl)amino]methyl}pyridine-4-carbonyloxy)-3-(hexadecanoyloxy)propan-2-yl hexadecanoate], the concentration giving a half-maximal response (EC50) with MCF7 cells was less than 1 µM.

Consider `CCOC(=O)N(C)c1ccc(COC(=O)c2ccnc(CNCCCCN(CC)CC)c2)cc1` [drawing 277, {4-[(ethoxycarbonyl)(methyl)amino]phenyl}methyl 2-({[4-(diethylamino)butyl]amino}methyl)pyridine-4-carboxylate], for which, in the test on MCF7 cells, the concentration giving a half-maximal response (EC50) is less than 1 µM.

Regarding `O=C(CNCc1cc(C(=O)O)ccn1)NC1CCN(CCCc2ccccc2)CC1` [#30, 2-{[({[1-(3-phenylpropyl)piperidin-4-yl]carbamoyl}methyl)amino]methyl}pyridine-4-carboxylic acid], the IC50 against UTX (KDM6A) was not below 1 µM; against GASC1 (KDM4C, JMJD2C) it was less than 0.1 µM; on PLU1 (KDM5B) it was less than 0.1 µM.

Turning to `COCCN1CCN(C(=O)CNCc2cc(C(=O)O)ccn2)CC1` [#16, 2-[({2-[4-(2-methoxyethyl)piperazin-1-yl]-2-oxoethyl}amino)methyl]pyridine-4-carboxylic acid], the IC50 is not below 1 µM against UTX (KDM6A); less than 0.1 µM on GASC1 (KDM4C, JMJD2C); less than 0.1 µM at PLU1 (KDM5B).

As usually defined, the EC50 is the concentration giving half of the maximal effect. By IC50 is commonly meant the point on the concentration scale where inhibition reaches its midpoint. Low readings indicate higher potency, high ones lower potency.
